Test results as given in patent US9988370B2, “Benzisoxazole derivative salt” (RaQualia Pharma Inc., priority 2014, dated 2018).

Legend:
[1] = Hygroscopicity study (storage at 90% RH, weighing and PXRD after five days); type: physicochemical; settings: for PXRD (compared to intact bulk) / PXRD - overnight at ambient condition: after five days at 90% RH; for PXRD - overnight at ambient condition: then equilibrated at ambient temperature overnight; for Water uptake after 5 days: humidity chamber at 90% RH (BaCl2-2H2O), five days
Description: The salt samples are weighed into aluminum crucibles, placed onto a sample holder, and stored in the humidity chamber at 90% RH (BaCl2-2H2O). The samples are visually inspected with a hand magnifying lens and weighed on an analytical balance after five days. The samples are analyzed by PXRD after five days, then allowed to equilibrate at ambient temperatures overnight and re-analyzed by PXRD to evaluate stability of suspected hydrates under ambient conditions.

[2] = Solid-state stability study under 40° C./75% RH (HPLC remaining % and purity); type: physicochemical; settings: 40° C./75% RH for 6 month; for Purity (Area %) Main peak: counterion area excluded
Description: HPLC data are obtained by Waters Alliance 2695 HPLC system with 2996 PDA detector using the following conditions; • Column: Inertsil ODS-3 (3 microm, 4.6×150 mm), • Eluent: acetonitrile/10 mM ammonium acetate=32/68, • Detection: UV at 215 nm, • Flow rate: 1 mL/min, and • Column temperature: 40° C.
Solid-state stability study is performed using Nagano Science Constant temperature/humidity control chamber LH-20-11M or LH-21-11M. The sample is placed in the chamber and exposed under 40° C./75% RH. The crystalline form and thermal behavior of the resultant sample after the exposure are evaluated by PXRD and TG/DTA, respectively. The remaining % and the purity are determined by HPLC measurement.

Row | Molecule | PXRD (compared to intact bulk) [1] | PXRD - overnight at ambient condition [1] | Assay Remaining % [2] [%] | Purity (Area %) Main peak [2] [Area %] | Water uptake after 5 days [1]
1 | 4-{[4-({[4-(2,2,2-trifluoroethoxy)-1,2-benzisoxazol-3-yl]oxy}methyl)piperidin-1-yl]methyl}tetrahydro-2H-pyran-4-carboxylic acid hemi-ethanedisulfonate salt [EDSA-salt] | same | no change | 99 | 100.0 | –
2 | Br.O=C(O)C1(CN2CCC(COc3noc4cccc(OCC(F)(F)F)c34)CC2)CCOCC1 [HBr-salt, 4-{[4-({[4-(2,2,2-trifluoroethoxy)-1,2-benzisoxazol-3-yl]oxy}methyl)piperidin-1-yl]methyl}tetrahydro-2H-pyran-4-carboxylic acid hydrobromide salt] | same | no change | 99 | 99.9 | –
3 | Cc1ccc(S(=O)(=O)O)cc1.O=C(O)C1(CN2CCC(COc3noc4cccc(OCC(F)(F)F)c34)CC2)CCOCC1 [pTSA-salt, 4-{[4-({[4-(2,2,2-trifluoroethoxy)-1,2-benzisoxazol-3-yl]oxy}methyl)piperidin-1-yl]methyl}tetrahydro-2H-pyran-4-carboxylic acid p-toluenesulfonate salt] | same | no change | 98 | 99.7 | –
4 | O=C([O-])C1(CN2CCC(COc3noc4cccc(OCC(F)(F)F)c34)CC2)CCOCC1.[Na+] [sodium salt, 4-{[4-({[4-(2,2,2-trifluoroethoxy)-1,2-benzisoxazol-3-yl]oxy}methyl)piperidin-1-yl]methyl}tetrahydro-2H-pyran-4-carboxylic acid sodium salt] | – | – | – | – | more than 40 wt %
5 | O=C(O)C1(CN2CCC(COc3noc4cccc(OCC(F)(F)F)c34)CC2)CCOCC1 [Free form, 4-{[4-({[4-(2,2,2-trifluoroethoxy)-1,2-benzisoxazol-3-yl]oxy}methyl)piperidin-1-yl]methyl}tetrahydro-2H-pyran-4-carboxylic acid] | different from the intact bulk | no change | 87 | 95.6 | 16.7 wt %
6 | Cl.O=C(O)C1(CN2CCC(COc3noc4cccc(OCC(F)(F)F)c34)CC2)CCOCC1 [HCl-salt, 4-{[4-({[4-(2,2,2-trifluoroethoxy)-1,2-benzisoxazol-3-yl]oxy}methyl)piperidin-1-yl]methyl}tetrahydro-2H-pyran-4-carboxylic acid hydrochloride salt] | same | no change | 97 | 98.8 | –
